Laboratory results taken from patent US20150148235A1, “HERBICIDE-RESISTANT SUNFLOWER PLANTS WITH MULTIPLE HERBICIDE RESISTANT ALLELES OF AHASL1 AND METHODS OF USE” (NIDERA S.A., priority 2013, published 2015).

Legend:
[1] = test system: AHAS enzyme, A205V Homozygous sunflower; experiment: AHAS enzyme activity assay, leaf extract; type: biochemical, Helianthus annuus; details: A205V homozygous hybrid (Set 1); 100 μM
Protocol: (§1) Twelve greenhouse grown sunflower plants from each of the lines depicted in Table 21 were bulked and subjected to an AHAS enzyme activity assay via the method of Singh et al. (1988) Anal. Biochem. 171:173-179. Each activity assay was repeated twice. Due to the large number of samples, the experiment was split into two sets (Table 21).
(§2) Young, actively growing leaves, from four week old plantlets, were ground in a mortar and pestle with liquid N2 and extracted with a buffer composed of 100 mM Pyruvate, 200 mM KH2PO4, 20 mM MgCl2, 2 mM thiamine pyrophosphate and […]. Plant extracts were then spun through a 10 mL Zeba TM desalt spin column (Pierce #89893) as per the manufacturer's recommendation. The inhibition assay was performed as described by Singh et al. (1988) Anal. Biochem. 171:173-179. Assays were conducted in a 96-well format. Fifty μl of inhibitor was added to each well containing 50 μl of soluble protein extract to give final concentrations of 0.78, 1.56, 3.125, 6.25, 12.5, 25, 50 and 100 μM imazamox or 0.78, 1.56, 3.125, 6.25, 12.5, 25, 50 and 100 μM imazapyr. Zero herbicide controls were also included for each line. Reactions were processed as outlined by Singh et al. (1988) Anal. Biochem. 171:173-179. Absorbance was measured at 530 nm. AHAS activity, expressed as the mean of the absorbance values for each treatment, was presented as a percentage of the mean of the zero-herbicide controls.

[2] = test system: AHAS enzyme, A122T Homozygous sunflower; experiment: AHAS enzyme activity assay, leaf extract; type: biochemical, Helianthus annuus; details: A122T homozygous hybrid (Set 1); 100 μM
Protocol: as §1, §2

[3] = test system: AHAS enzyme, A122T/A205V Heterozygous sunflower; experiment: AHAS enzyme activity assay, leaf extract; type: biochemical, Helianthus annuus; details: A122T/A205V heterozygous hybrid (Set 1); 100 μM
Protocol: as §1, §2

[4] = test system: sunflower hybrids H1, H2, H3, H5, H6; details: in vivo
[5] = test system: sunflower hybrids and lines (A122T, A205V, A205V/A122T); experiment: Field trial North Dakota 2006, phytotoxicity ratings after imazamox or imazapyr, Example 3; type: in vivo, Helianthus annuus; details: for Phytotoxicity Rating (% Crop Injury): 160 g ai/ha + 0.25% NIS
Protocol: • Spray volume: 10 gallons per acre (GPA) (or 100 liters/ha) for backpack sprayer or 20 GPA (or 200 liters/ha) for tractor mounted boom • Growth Stage at Herbicide Application: 2-4 leaves
Entry 15 (WT Maintainer line) was left unsprayed in all treatment blocks.
Phytotoxicity ratings were assessed at 7 and 21 days following herbicide application.
The data was subjected to an ANOVA analysis and the means from the 3 repetitions are presented in Table 7 (phytotoxicity at 7 days post-treatment) and Table 8 (phytotoxicity at 21 days post-treatment).

CC(C)C1(C)N=C(c2ncccc2C(=O)O)NC1=O (stereo not drawn) [imazapyr]
AHAS activity [1]: 42 % of untreated control | AHAS activity [2]: 64 % of untreated control | AHAS activity [3]: 60% | Phytotoxicity Index (scale 0-50) [4]: greater than 35 | Phytotoxicity Rating (% Crop Injury) ([5]; 1-hybrid (WT × IMI restorer, A205 hetero), 7 DAT): 16.7% | Phytotoxicity Rating (% Crop Injury) ([5]; 1-hybrid (WT × IMI restorer, A205 hetero), 21 DAT): 20.0% | Phytotoxicity Rating (% Crop Injury) ([5]; 3-hybrid (WT × IMI restorer, A205 hetero), 7 DAT): 35.0% | Phytotoxicity Rating (% Crop Injury) ([5]; 3-hybrid (WT × IMI restorer, A205 hetero), 21 DAT): 43.3% | Phytotoxicity Rating (% Crop Injury) ([5]; 4-line (IMI Restorer, A205 homo), 7 DAT): 11.7% | Phytotoxicity Rating (% Crop Injury) ([5]; 4-line (IMI Restorer, A205 homo), 21 DAT): 6.7% | Phytotoxicity Rating (% Crop Injury) ([5]; 6-hybrid (IMI CMS × IMI restorer, A205 homo), 7 DAT): 8.3% | Phytotoxicity Rating (% Crop Injury) ([5]; 6-hybrid (IMI CMS × IMI restorer, A205 homo), 21 DAT): 3.3% | Phytotoxicity Rating (% Crop Injury) ([5]; 7-hybrid (WT-CMS × IMI restorer, A205 hetero), 7 DAT): 21.7% | Phytotoxicity Rating (% Crop Injury) ([5]; 7-hybrid (WT-CMS × IMI restorer, A205 hetero), 21 DAT): 36.7% | Phytotoxicity Rating (% Crop Injury) ([5]; 8-hybrid (WT × GM40 restorer, A122 hetero), 7 DAT): 13.3% | Phytotoxicity Rating (% Crop Injury) ([5]; 8-hybrid (WT × GM40 restorer, A122 hetero), 21 DAT): 11.7% | Phytotoxicity Rating (% Crop Injury) ([5]; 9-line (GM40 restorer, A122 homo), 7 DAT): 8.3% | Phytotoxicity Rating (% Crop Injury) ([5]; 9-line (GM40 restorer, A122 homo), 21 DAT): 5.0% | Phytotoxicity Rating (% Crop Injury) ([5]; 10-hybrid (IMI CMS × GM40 restorer, A205/A122 hetero/double), 7 DAT): 3.3% | Phytotoxicity Rating (% Crop Injury) ([5]; 10-hybrid (IMI CMS × GM40 restorer, A205/A122 hetero/double), 21 DAT): 0.0% | Phytotoxicity Rating (% Crop Injury) ([5]; 11-hybrid (GM40 CMS × IMI restorer, A205/A122 hetero/double), 7 DAT): 3.3% | Phytotoxicity Rating (% Crop Injury) ([5]; 11-hybrid (GM40 CMS × IMI restorer, A205/A122 hetero/double), 21 DAT): 0.0% | Phytotoxicity Rating (% Crop Injury) ([5]; 12-hybrid (IMI CMS × GM40 restorer, A205/A122 hetero/double), 7 DAT): 5.0% | Phytotoxicity Rating (% Crop Injury) ([5]; 12-hybrid (IMI CMS × GM40 restorer, A205/A122 hetero/double), 21 DAT): 1.7% | Phytotoxicity Rating (% Crop Injury) ([5]; 13-hybrid (GM40 CMS × GM40 restorer, A122 homo), 7 DAT): 5.0% | Phytotoxicity Rating (% Crop Injury) ([5]; 13-hybrid (GM40 CMS × GM40 restorer, A122 homo), 21 DAT): 1.7% | Phytotoxicity Rating (% Crop Injury) ([5]; 14-hybrid (GM40 CMS × GM40 restorer, A122 homo), 7 DAT): 8.3% | Phytotoxicity Rating (% Crop Injury) ([5]; 14-hybrid (GM40 CMS × GM40 restorer, A122 homo), 21 DAT): 3.3% | Phytotoxicity Rating (% Crop Injury) ([5]; 15-hybrid (WT × GM40 restorer, A122 hetero), 7 DAT): 8.3% | Phytotoxicity Rating (% Crop Injury) ([5]; 15-hybrid (WT × GM40 restorer, A122 hetero), 21 DAT): 21.7% | Phytotoxicity Rating (% Crop Injury) ([5]; 16-hybrid (WT × GM40 restorer, A122 hetero), 7 DAT): 10.0% | Phytotoxicity Rating (% Crop Injury) ([5]; 16-hybrid (WT × GM40 restorer, A122 hetero), 21 DAT): 23.3% | phytotoxicity ([5]; heterozygous A205V entries, 160 g ai/ha, 21 DAT): 20-43%
